Data set [1] concerns interleukin 5 (IL-5) production. Briefly: Cytokine production inhibitory effect: IL-5 production by murine spleen cells treated with anti-mouse CD3 antibody and IL-2 (ELISA). Format: cell-based, Balb/c mice. To be noted: test compound 100 ppm, anti-CD3 antibody + IL-2, 40 to 48 hours, read-out: IL-5 production inhibitory ratio (%). On the technique in general: In an ELISA, binding on a coated surface is turned into a signal by an enzyme label.

The test system of data set [2] is interferon γ (IFN-γ) production. Briefly: Cytokine production inhibitory effect: IFN-γ production by murine spleen cells treated with anti-mouse CD3 antibody and IL-2 (ELISA). Format: cell-based, Balb/c mice. Particulars: test compound 100 ppm, anti-CD3 antibody + IL-2, 40 to 48 hours, read-out: IFN-γ production inhibitory ratio (%).

Broadly, the melting point is the temperature of the solid-liquid transition. `O=C(Nc1ccc(-c2ccccc2)cc1)c1cc([N+](=O)[O-])ccc1Cl` [compound 83] gave a melting point of 203 to 206 °C. In data set [1], the inhibition at 100 ppm came out at 90%. Besides, the inhibition at 100 ppm in data set [2] amounted to 76%.
`N#Cc1ccc(Cl)c(C(=O)Nc2ccc(Oc3ccccc3)cc2)c1` [compound 85] gave a melting point of 143 °C. Besides, the inhibition at 100 ppm in data set [1] was 91%. The inhibition at 100 ppm in data set [2] is 86%.
Take `N#Cc1ccc(Cl)c(C(=O)Nc2ccc(Oc3ncc(C(F)(F)F)cc3Cl)cc2)c1` [compound 86]: the melting point is 209 to 212 °C. Moreover, the inhibition at 100 ppm in data set [1] was 87%. In data set [2], the inhibition at 100 ppm stood at 29%.
In the case of `N#Cc1ccc(Cl)c(C(=O)Nc2ccc(Sc3ncc(C(F)(F)F)cc3Cl)cc2)c1` [compound 87], the melting point lay within 229 to 231 °C. Moreover, the inhibition at 100 ppm in data set [1] is 100%. Further, the inhibition at 100 ppm in data set [2] stood at 100%.
For `CS(=O)(=O)c1ccc(Cl)c(C(=O)Nc2ccc(Oc3ncc(C(F)(F)F)cc3Cl)cc2)c1` [compound 88], the melting point was 221 °C. In addition, the inhibition at 100 ppm in data set [1] worked out at 72%. In data set [2], the inhibition at 100 ppm came to 17%.
As to `O=C(Nc1ccc(Oc2ccc(C(F)(F)F)cc2Cl)cc1)c1cc([N+](=O)[O-])ccc1Cl` [compound 89], the melting point is 168 °C. For the same compound, the inhibition at 100 ppm in data set [1] was 87%. For the same compound, in data set [2], the inhibition at 100 ppm worked out at 99%.
On the same counts, the results for `O=[N+]([O-])c1ccc(Cl)c(S(=O)(=O)Nc2ccc(Sc3ncc(C(F)(F)F)cc3Cl)cc2)c1` [compound 90] are 224 to 226 °C, 100% and 100%.
On the same counts, the results for `Cc1cc(Oc2ncc(C(F)(F)F)cc2Cl)ccc1NC(=O)c1cc([N+](=O)[O-])ccc1Cl` [compound 91] are 219 to 221 °C, 53% and 1%.
In the same order, the values of `O=C(Nc1ccc(CO)cc1)c1cc([N+](=O)[O-])ccc1Cl` [compound 92] are 201 to 204 °C, 99% and 100%.
As for `O=C(Nc1ccc(C23CC4CC(CC(C4)C2)C3)cc1)c1cc([N+](=O)[O-])ccc1F` [compound 93], the melting point lay within 224 to 228 °C. Further, the inhibition at 100 ppm in data set [1] came out at 100%. Besides, in data set [2], the inhibition at 100 ppm is 100%.
Turning to `O=C(Nc1ccc(C23CC4CC(CC(C4)C2)C3)cc1)c1cc([N+](=O)[O-])ccc1Br` [compound 94], the melting point was 273 to 275 °C. The inhibition at 100 ppm in data set [1] amounted to 85%. Also, the inhibition at 100 ppm in data set [2] came to 53%.
As to `O=C(Nc1ccc(Oc2ccc(C(F)(F)F)cc2Cl)cc1)c1cc([N+](=O)[O-])ccc1Br` [compound 96], the melting point was in the range of 167 to 172 °C. The inhibition at 100 ppm in data set [1] was determined as 100%. For the same compound, the inhibition at 100 ppm in data set [2] was 100%.
`O=C(Nc1ccc(CCOc2ncc(C(F)(F)F)cc2Cl)cc1)c1cc([N+](=O)[O-])ccc1Cl` [compound 97] had a melting point of 131 to 134 °C. In data set [1], the inhibition at 100 ppm turned out to be 77%. The inhibition at 100 ppm in data set [2] came out at 84%.
`O=C(Nc1ccc(Oc2ncc(C(F)(F)F)cc2Cl)cc1)c1cc([N+](=O)[O-])ccc1F` [compound 98] showed a melting point of 168 to 170 °C. The inhibition at 100 ppm in data set [1] was 96%. For the same compound, the inhibition at 100 ppm in data set [2] was found to be 99%.
`O=C(Nc1ccc(Oc2ncc(C(F)(F)F)cc2Cl)cc1)c1cc([N+](=O)[O-])ccc1Br` [compound 99] registered a melting point of 191 to 195 °C. For the same compound, the inhibition at 100 ppm in data set [1] amounted to 100%. In addition, in data set [2], the inhibition at 100 ppm is 89%.
On the same counts, the results for `COC(=O)c1cc(Oc2ncc(C(F)(F)F)cc2Cl)ccc1NC(=O)c1cc([N+](=O)[O-])ccc1Cl` [compound 100] are 154 to 158 °C, 92% and 93%.
On the same counts, the results for `O=C(Nc1ccc(Oc2ncc(C(F)(F)F)cc2Cl)cc1C(=O)O)c1cc([N+](=O)[O-])ccc1Cl` [compound 101] are 240 to 245 °C, 100% and 100%.
On the same counts, the results for `Cc1cc(Oc2ncc(C(F)(F)F)cc2Cl)c(C)cc1NC(=O)c1cc([N+](=O)[O-])ccc1Cl` [compound 105] are 296 to 298 °C, 55% and 25%.
Consider `COC(=O)c1cc(NC(=O)c2cc([N+](=O)[O-])ccc2Cl)ccc1Oc1ncc(C(F)(F)F)cc1Cl` [compound 107], for which the melting point lay in the range of 226 to 229 °C. The inhibition at 100 ppm in data set [1] worked out at 99%. In data set [2], the inhibition at 100 ppm came to 97%.
In the same order, the values of `COc1cc(NC(=O)c2cc([N+](=O)[O-])ccc2Cl)ccc1Oc1ncc(C(F)(F)F)cc1Cl` [compound 109] are 190 to 193 °C, 100% and 95%.
Compound `O=C(Nc1ccc(OCC23CC4CC(CC(C4)C2)C3)cc1)c1cc([N+](=O)[O-])ccc1Cl` [compound 110] showed a melting point of 175 to 180 °C. Besides, the inhibition at 100 ppm in data set [1] was determined as 99%. Besides, the inhibition at 100 ppm in data set [2] amounted to 100%.
Consider `O=C(Nc1ccc(OC2C3CC4CC(C3)CC2C4)cc1)c1cc([N+](=O)[O-])ccc1Cl` (stereo not drawn) [compound 111], for which the melting point lay within 178 to 180 °C. In addition, the inhibition at 100 ppm in data set [1] was found to be 99%. In addition, the inhibition at 100 ppm in data set [2] was determined as 99%.
For `O=C(Nc1cc(Cl)c(Oc2ncc(C(F)(F)F)cc2Cl)c(Cl)c1)c1cc([N+](=O)[O-])ccc1Cl` [compound 112], the melting point was in the range of 189 to 191 °C. Further, the inhibition at 100 ppm in data set [1] amounted to 100%. For the same compound, in data set [2], the inhibition at 100 ppm was 100%.
The compound `O=C(Nc1ccc(Oc2ncc(C(F)(F)F)cc2Cl)c(Cl)c1)c1cc([N+](=O)[O-])ccc1Cl` [compound 113] registered a melting point of 222 to 225 °C. The inhibition at 100 ppm in data set [1] came to 96%. The inhibition at 100 ppm in data set [2] was determined as 97%.
In turn, `NC(=O)c1cc(NC(=O)c2cc([N+](=O)[O-])ccc2Cl)ccc1Oc1ncc(C(F)(F)F)cc1Cl` [compound 116] registered a melting point of 239 to 244 °C. Moreover, the inhibition at 100 ppm in data set [1] stood at 100%. Besides, in data set [2], the inhibition at 100 ppm is 99%.
On the same counts, the results for `Cc1cc(NS(=O)(=O)c2cc([N+](=O)[O-])ccc2Cl)ccc1Oc1ncc(C(F)(F)F)cc1Cl` [compound 117] are 233 to 236 °C, 100% and 100%.
As to `Cc1cc(NC(=O)c2cc(C#N)ccc2Cl)ccc1Oc1ncc(C(F)(F)F)cc1Cl` [compound 118], the melting point lay in the range of 221 to 223 °C. For the same compound, in data set [1], the inhibition at 100 ppm amounted to 78%. In addition, the inhibition at 100 ppm in data set [2] worked out at 47%.
As to `Cc1cc(NC(=O)c2cc([N+](=O)[O-])ccc2F)ccc1Oc1ncc(C(F)(F)F)cc1Cl` [compound 119], the melting point lay within 179 to 181 °C. Moreover, the inhibition at 100 ppm in data set [1] worked out at 100%. Further, the inhibition at 100 ppm in data set [2] amounted to 99%.
`Cc1cc(NC(=O)c2cc([N+](=O)[O-])ccc2Br)ccc1Oc1ncc(C(F)(F)F)cc1Cl` [compound 120]: the melting point lay within 246 to 248 °C. Besides, the inhibition at 100 ppm in data set [1] stood at 84%. Also, the inhibition at 100 ppm in data set [2] turned out to be 35%.
In the same order, the values of `Nc1cc(NC(=O)c2cc([N+](=O)[O-])ccc2Cl)ccc1Oc1ncc(C(F)(F)F)cc1Cl` [compound 121] are 235 to 237 °C, 97% and 100%.
On the same counts, the results for `N#Cc1cc(NC(=O)c2cc([N+](=O)[O-])ccc2Cl)ccc1Oc1ncc(C(F)(F)F)cc1Cl` [compound 122] are 194 to 198 °C, 100% and 100%.
In the same order, the values of `CC(=O)Nc1cc(NC(=O)c2cc([N+](=O)[O-])ccc2Cl)ccc1Oc1ncc(C(F)(F)F)cc1Cl` [compound 125] are 203 to 205 °C, 100% and 100%.
Take `O=C(Nc1ccc(Oc2ncc(C(F)(F)F)cc2Cl)c(O)c1)c1cc([N+](=O)[O-])ccc1Cl` [compound 126]: the melting point is 194 to 197 °C. Moreover, in data set [1], the inhibition at 100 ppm came to 100%. The inhibition at 100 ppm in data set [2] worked out at 100%.
For `CN(C)c1cc(NC(=O)c2cc([N+](=O)[O-])ccc2Cl)ccc1Oc1ncc(C(F)(F)F)cc1Cl` [compound 128], the melting point is 208 to 213 °C. Moreover, in data set [1], the inhibition at 100 ppm stood at 96%. In addition, the inhibition at 100 ppm in data set [2] turned out to be 93%.
`CN(c1cc(NC(=O)c2cc([N+](=O)[O-])ccc2Cl)ccc1O)c1ncc(C(F)(F)F)cc1Cl` [compound 129] had a melting point of 273 to 276 °C. In data set [1], the inhibition at 100 ppm stood at 86%. Also, the inhibition at 100 ppm in data set [2] was 67%.
`O=C(Nc1ccc(Oc2ncc(C(F)(F)F)cc2Cl)c(N2CCCC2)c1)c1cc([N+](=O)[O-])ccc1Cl` [compound 130] returned a melting point of 235 to 237 °C. For the same compound, the inhibition at 100 ppm in data set [1] turned out to be 100%. Moreover, the inhibition at 100 ppm in data set [2] was 99%.
`O=C(Nc1ccc(Oc2ncc(C(F)(F)F)cc2Cl)c(N2CCCCC2)c1)c1cc([N+](=O)[O-])ccc1Cl` [compound 131] had a melting point of 194 to 198 °C. For the same compound, the inhibition at 100 ppm in data set [1] was 100%. Besides, in data set [2], the inhibition at 100 ppm was 100%.
The compound `O=C(Nc1ccc(Nc2ncc(C(F)(F)F)cc2Cl)cc1)c1cc([N+](=O)[O-])ccc1Cl` [compound 132] registered a melting point of 215 to 218 °C. Moreover, the inhibition at 100 ppm in data set [1] was 99%. Also, the inhibition at 100 ppm in data set [2] was 100%.
Compound `CN(c1ccc(NC(=O)c2cc([N+](=O)[O-])ccc2Cl)cc1)c1ncc(C(F)(F)F)cc1Cl` [compound 133] returned a melting point of 212 to 216 °C. The inhibition at 100 ppm in data set [1] was 99%. Further, the inhibition at 100 ppm in data set [2] was determined as 100%.

(Values after patent publication US7132546B2, “Aniline derivatives or salts thereof and cytokine production inhibitors containing the same” (Ishihara Sangyo Kaisha, Ltd., priority 2000, dated 2006).)
